According to patent US7618977B2, “Method of treating dermatitis comprising administering a chymase inhibitor” (Asubio Pharma Co., Ltd., priority 2000, dated 2009):

Legend:
[1] = system: dermatitis induced by repeated application of hapten; assay: Mouse dermatitis model induced by repeated application of hapten (DNFB), ear thickness; assay type: in vivo, C3H/HeN mice
Procedure: Dermatitis was induced in accordance with an already reported method (J. Pharmacol. Exp. Ther. 283, 321, 1997) using dinitrofluorobenzene (DNFB) as hapten. That is, the right ears of eight-week old female C3H/HeN mice (Nippon Clare) (n=7) were painted with 0.15% DNFB (25 μl) dissolved in an acetone/olive oil (3:1) every seven days six times. When applying the hapten each time, the ear thickness was measured by a micrometer (Digimatic Indicator, Mitsutoyo Co.) immediately before the application and 1 hour, 6 hours, 24 hours, and 48 hours after the application so as to find the amount of increase from the ear thickness before the first application of hapten. Further, a group similarly treated with an acetone/olive oil solution (3:1) not containing DNFB was used as a control. Further, in a test separate from the above, the ears were cut off immediately before the third application of hapten, the chymase-like activity of the skin was measured in accordance with an already reported method (n=3), and this was compared with the activity of mice treated with an acetone/olive oil solution (3:1) not containing DNFB (n=2).
The effect of a test substance on dermatitis was investigated by inducing dermatitis in accordance with the method described in Example 9 (n=7) and measuring the ear thickness in the same way as in Example 9. As the test substance, three chymase inhibitors (Compound 18, Compound 34, and Compound 35) were used, while as the control, the steroid prednisolone (Nakarai Tesc Inc.) was used. Further, the test substance was suspended in saline containing 0.5% hydroxypropyl cellulose in the same way as in Example 3 (HPC/saline) and intraperitoneally administered in dosages of 10 mg/kg or 50 mg/kg once a day for five consecutive days a week until the end of the test; the first administration was performed immediately before the start of the hapten application. Further, a group similarly treated with DNFB and administered HPC/saline instead of the test substance was used as a control group.

[2] = system: Ascaris-induced mouse biphasic dermatitis; assay: Ascaris-induced mouse biphasic dermatitis model, ear edema; assay type: in vivo, BALB/c mice
Procedure: Ascaris-induced biphasic dermatitis was induced according to the method described previously (Folia Pharmacol. Jap. 112, 221, 1998). That is, 8-week old BALB/c mice (Charles River Japan) were sensitized by intraperitoneal injection of 0.5 ml of a 1:1 mixture of ascaris extract (800 μg/ml, Cosmo Bio Co., Ltd.) and an alum saline suspension (16 mg/ml in saline). Two weeks after the sensitization, 10 μl of ascaris extract (1 mg/ml) was injected intradermally to the right ear of mice. The edema induced at the ear were evaluated immediately before intradermal injection of the ascaris extract (n=3) and 1 hour after (n=4), 2 hours after (n=4), 4 hours after (n=4), 6 hours after (n=4), 16 hours after (n=4), and 24 hours after injection (n=4), by weighing ear biopsy prepared with a punch (a diameter of 6 mm, Fukui Kiko Shokai) and measuring their weights. The edema (mg) was expressed as the difference in the weight of the ear punch biopsy between the right and the left ears of the same mouse. Dermatitis was induced in accordance with the method described in Example 2 and the ear edema was measured in the same way as in Example 2, 1 hour (n=6) and 16 hours (n=8) after the intradermal administration of ascaris extract to the ears to investigate the effects of the test substance on dermatitis. As the chymase inhibitor, Compound 34 was used. As the control drug, diphenhydrazine (antihistamine, Sigma) and prednisolone (steroid, Nakarai Tesc Co.) were used. Each drug under study was suspended in saline containing 0.5% hydroxypropyl cellulose and administered intraperiotoneally 60 minutes before intradermal administration of ascaris extract. A group of mice sensitized with ascaris extract and challenged by intradermal injection of saline was used as a control (n=3).

## Cl.O=c1[nH]c2cc(Cl)ccc2c(=O)n1S(=O)(=O)c1ccc(-c2cc[nH]n2)cc1 [Compound 35, 7-chloro-3-[4-(pyrazol-3-yl)benzenesulfonyl]-2,4(1H,3H)-quinazolinedione Hydrochloride]
[1]; 50 mg/kg intraperitoneal once a day, five days a week, p<0.05 Dunnett's test
  suppression of increase in ear thickness (skin reaction after hapten application): significantly suppressed

## C[C@]12C=CC(=O)C=C1CC[C@@H]1[C@@H]2[C@@H](O)C[C@@]2(C)[C@H]1CC[C@]2(O)C(=O)CO [Prednisolone, prednisolone]
[2]; 30 mg/kg intraperitoneal, 16 hours after challenge
  rate of suppression, late-phase reaction: 67%
[2]; control drug, intraperitoneal, 1 hour after challenge
  effect against the early-phase reaction: substantially ineffective
[1]; control drug, 10 mg/kg or 50 mg/kg intraperitoneal
  suppression of dermatitis (ear thickness): suppressed dermatitis in this model in a dose-dependent manner

## CN(C)CCOC(c1ccccc1)c1ccccc1 [diphenhydrazine]
[2]; control drug, intraperitoneal, dose not given, 1 hour after challenge
  rate of suppression, early-phase reaction: 79%
[2]; control drug, intraperitoneal, dose not given, 16 hours after challenge
  effect against the late-phase reaction: almost no effect
